Assay results taken from publication PMC5729604, “Dual inhibitors of hepatitis C virus and hepatocellular carcinoma: design, synthesis and docking studies” (Future Science OA, 2017).
“Also recorded” adds a separate entry of the source.

How the values were obtained:
In vitro hemolytic assay = format: cell-based; conditions: 2% erythrocyte suspension (washed red blood cells); 2% erythrocyte suspension, 3 μl of 1 mg/ml compound in DMF per 240 μl well, 37°C 30 min, absorbance 405 nm; <5% considered nontoxic
Experimental: Compounds 5a-x and 6a-h were subjected to the in vitro hemolytic assay to identify those which cause hemolysis to red blood cells (RBCs). Consequently, these compounds would be toxic in vivo so they were excluded from further biological screening.
Blood samples (5 ml) were freshly collected into heparinized tubes and were centrifuged (1000 r.p.m. for 20 min) at room temperature. The plasma and buffy coat were removed by Pasteur pipette, and the collected erythrocytes were washed three-times using isotonic buffer solution (0.9% sodium chloride [Sigma-Aldrich, MO, USA]) by centrifugation (2500 r.p.m. for 10 min). A two percent erythrocyte suspension was prepared to be used in the assay.
A 1 mg/ml stock solution of each compound was prepared in DMF (Sigma-Aldrich). Compound wells were prepared by adding 3 μl of the compound solution to 117 μl isotonic buffer solution and 120 μl erythrocyte suspension. Compounds color blank wells were prepared by adding 3 μl compound to 237 μl isotonic buffer solution. Solvent (DMF) wells were prepared by adding 3 μl DMF to 117 μl isotonic buffer solution and 120 μl erythrocyte suspension. Positive control wells (representing 100% hemolysis) were prepared by adding 120 μl erythrocyte suspension to 120 μl distilled water, while negative control wells (representing 0% hemolysis) were prepared by adding 120 μl erythrocyte suspension to 120 μl isotonic buffer solution. Finally, blank wells contained only 240 μl isotonic buffer solution. Each set of samples was pipetted in triplicate. The microtiter plate was then shaken well on bench, incubated at 37°C for 30 min then centrifuged (2000 rpm for 5 min) at room temperature.
A fraction of the supernatant layer (150 μl) of each well was transferred to another 96-well microtiter plate. Erythrocyte hemolysis was determined by reading the absorbance (A) of liberated hemoglobin at 405 nm in the supernatant fraction compared with the 100% hemolysis of erythrocyte. The average value was calculated from triplicate assay: [drawing 2]

[1] = tested on: HepG2 cells infected with hepatitis C virus; test: In vitro anti-HCV screening, qualitative RT-PCR of viral RNA; format: cell-based, HCV genotype-4; conditions: for Result (anti-HCV screening): at the used dose (below LD0 on HepG2 and PBMCs), 72 h, Positive = disappearance of viral RNA-amplified product (174 bp)
Source text: The safe compounds on RBCs (5a-g, 5i-l, 5p-r, 5v-w, 6b-g) were screened for their in vitro anti-HCV activity using the HCC HepG2 cell line infected with the HCV. Monitoring of the HCV viremia pre- and post-antiviral therapy through the detection of viral RNA using qualitative reverse transcription-PCR (RT-PCR) was adopted in the present investigation. This technique was reported to be the most frequently used, reliable and sensitive technique. Inhibition of viral replication was detected by amplification of viral RNA segments by the RT-PCR technique both in the cultivated infected cells alone (as a positive control) and at the specified dose for each test compound at optimal temperature. The test compound was considered to be active when it can inhibit the viral replication inside the HCV-infected HepG2 cells, as evidenced by the disappearance of the viral RNA-amplified products detected by the RT-PCR (compared with positive control).
The used concentration of each compound was chosen to be lower than the LD0 on HepG2 cells. Therefore, 100% viability of HepG2 cells was maintained, to make sure that any inhibitory effect was due to anti-HCV activity rather than cytotoxic activity on HepG2 cells. Moreover, the used concentrations were also chosen to be lower than the LD0 on PBMCs. Consequently, these doses could be used for inhibition of HCV in normal cells infected with the virus.
HepG2 cells were washed twice in RPMI-1640 medium supplemented with 200 μM L-glutamine and […] HEPES buffer. The cells were suspended at 12 × 10^4 cells/ml in RPMI culture medium (RPMI supplemented medium and 10% FBS). The appropriate number of cells to be used was chosen to be 12 × 10^3 cells/well (100 μl of the prepared suspension), and the cells were left to adhere on the polystyrene […] plates in an incubator at 37°C, 5% CO2 and 95% humidity for 24 h. The cells were washed once using RPMI supplemented medium, then infected with 2% HCV-infected serum (the used serum was a pole of ten patients infected with HCV genotype-4 with viral loads: 3.2–9 million IU/ml, G4 HCV RNA) in RPMI culture medium containing 8% FBS. The used dose of each compound was chosen so as to maintain 100% viability of the HepG2 cell line (the dose was lower than the LD0 of each compound on HepG2 cells as calculated from the in vitro anticancer screening). It was reported that, cultured HepG2 cells lost their biotransformation activity due to decrease in cytochrome (CYP) transcription. This waived its effect on the compounds stability during the test. Negative control is HepG2 cells with culture medium without addition of HCV infected serum or addition of tested compounds. Positive control is HepG2 cells with culture medium and infected HCV serum but without addition of tested compounds. After addition of the compounds, the plates were incubated at 37°C, 5% CO2 and 95% humidity for 72 h, followed by RNA extraction. The RNA strand was detected by RT-PCR using HCV-specific primers to the […] region of the virus.
RNA was extracted from HepG2 cells using the method described by El-Awady et al.. Culture cells were mixed with 200 μl of 4 mol/l guanidinium isothiocyanate (Fischer Bioreagents) containing 25 mmol/l sodium citrate (MP Biomedicals, CA, USA), 0.5% sarkosyl (Fischer Bioreagents), 0.1 mol/l β-mercaptoethanol (MP Biomedicals), and 100 μl sodium acetate (Merck). The lysed cells were mixed with an equal volume of phenol, chloroform and isoamyl alcohol (25:24:1, pH 4; Fischer Bioreagents). After vortexing, the mixture was centrifuged (14,000 r.p.m. for 10 min) at 4°C. The aqueous layer was collected and mixed with an equal volume of isopropanol (Acros Organics, Geel, Belgium). After incubation at -20°C overnight, RNA was precipitated by centrifugation (14,000 r.p.m. for 30 min) at 4°C, and the precipitated RNA was washed twice with 70% ethanol. […]

SMILES | hemolysis at 30 min, 12.5 µg/ml (In vitro hemolytic assay) [%] | in vitro anti-HCV activity, in words ([1]; HCV-infected HepG2 cells, RT-PCR) | Result (anti-HCV screening) [1]
CC(=NN=C1SC(=Cc2cn(-c3ccccc3)nc2-c2ccccc2)C(=O)N1C1CCCCC1)c1nc2ccccc2[nH]1 [Compound 5v, 2-[1-(1H-Benzimidazole-2-yl)ethylidenehydrazono]-5-[(1,3-Diphenyl-1H-pyrazol-4-yl)methylene]-3-cyclohexylthiazolidin-4-one] | 3.66 | showed in vitro anti-HCV activity; also recorded: exhibited in vitro anti-HCV activity | Positive
CC(=NN=C1SC(=Cc2cn(-c3ccccc3)nc2-c2ccc(Cl)cc2)C(=O)N1C1CCCCC1)c1nc2ccccc2[nH]1 [Compound 5w, 2-[1-(1H-Benzimidazole-2-yl)ethylidenehydrazono]-5-{[3-(4-chlorophenyl)-1-phenyl-1H-pyrazol-4-yl]methylene}-3-cyclohexylthiazolidin-4-one] | 3.53 |  | Negative
CC(=NN=C1SC(=C2C(=O)Nc3ccccc32)C(=O)N1c1ccc(Cl)cc1)c1cc2ccccc2o1 [Compound 6b, 2-[1-(Benzofuran-2-yl)ethylidenehydrazono]-5-(2-oxoindolin-3-ylidene)-3-(4-chlorophenyl)thiazolidin-4-one] | 3.08 |  | Negative
COc1ccc(N2C(=O)C(=C3C(=O)Nc4ccccc43)SC2=NN=C(C)c2cc3ccccc3o2)cc1 [Compound 6c, 2-[1-(Benzofuran-2-yl)ethylidenehydrazono]-5-(2-oxoindolin-3-ylidene)-3-(4-methoxyphenyl)thiazolidin-4-one] | 4.02 |  | Negative
CC(=NN=C1SC(=C2C(=O)Nc3ccccc32)C(=O)N1C1CCCCC1)c1cc2ccccc2o1 [Compound 6d, 2-[1-(Benzofuran-2-yl)ethylidenehydrazono]-5-(2-oxoindolin-3-ylidene)-3-cyclohexylthiazolidin-4-one] | 1.31 |  | Negative
CC(=NN=C1SC(=C2C(=O)Nc3ccccc32)C(=O)N1c1ccccc1)c1nc2ccccc2[nH]1 [Compound 6e, 2-[1-(1H-Benzimidazole-2-yl)ethylidenehydrazono]-5-(2-oxoindolin-3-ylidene)-3-phenylthiazolidin-4-one] | 4.51 |  | Negative
CC(=NN=C1SC(=C2C(=O)Nc3ccccc32)C(=O)N1c1ccc(Cl)cc1)c1nc2ccccc2[nH]1 [Compound 6f, 2-[1-(1H-Benzimidazole-2-yl)ethylidenehydrazono]-5-(2-oxoindolin-3-ylidene)-3-(4-chlorophenyl)thiazolidin-4-one] | 1.01 |  | Negative
COc1ccc(N2C(=O)C(=C3C(=O)Nc4ccccc43)SC2=NN=C(C)c2nc3ccccc3[nH]2)cc1 [Compound 6g, 2-[1-(1H-Benzimidazole-2-yl)ethylidenehydrazono]-5-(2-oxoindolin-3-ylidene)-3-(4-methoxyphenyl)thiazolidin-4-one] | 2.65 |  | Negative
